Test results reported in patent US20060069132A1, “Azolecarboxamide herbicides” (priority 2004, published 2006).

Experiments:
barnyardgrass [1] = test: Test B pre-/postemergence herbicide test; format: in vivo, Echinochloa crus-galli
In short: (§1)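 Herbicidal effect was judged by eye on a 0–100 scale after plants stood 13 to 15 days in the greenhouse following pre- or postemergence treatment with surfactant-containing formulations.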

Surinam grass = test: Test B pre-/postemergence herbicide test; format: in vivo, Urochloa decumbens
In short: (§2)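 Formulation: non-phytotoxic solvent mix with surfactant. Timing: preemergence on seed and postemergence on 2–18 cm plants, applied concurrently. Readout after 13–15 d greenhouse: visual 0–100 control rating against controls.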

cocklebur = test: Test B pre-/postemergence herbicide test; format: in vivo, Xanthium strumarium
In short: as §1

corn = test: Test B pre-/postemergence herbicide test; format: in vivo, Zea mays
In short: as §2

large crabgrass = test: Test B pre-/postemergence herbicide test; format: in vivo, Digitaria sanguinalis
In short: as §2

giant foxtail = test: Test B pre-/postemergence herbicide test; format: in vivo, Setaria faberi
In short: as §2

lambsquarters = test: Test B pre-/postemergence herbicide test; format: in vivo, Chenopodium album
In short: as §2

morningglory = test: Test B pre-/postemergence herbicide test; format: in vivo, Ipomoea coccinea
In short: as §1

pigweed = test: Test B pre-/postemergence herbicide test; format: in vivo, Amaranthus retroflexus
In short: as §2

velvetleaf = test: Test B pre-/postemergence herbicide test; format: in vivo, Abutilon theophrasti
In short: as §2

blackgrass = test: Test B postemergence herbicide test; format: in vivo, Alopecurus myosuroides
In short: (§3)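 Treated at 2-leaf (paddy) or 1–4-leaf, 2–18 cm (postemergence); greenhouse 13–15 d; visual score vs control, 0 none to 100 complete control; dash = not tested.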

wheat = test: Test B postemergence herbicide test; format: in vivo, Triticum aestivum; parameters: key to Wheat plant response rating: 0 = no effect, 100 = complete control
In short: (§4)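 Visual ratings, 0 (no effect) to 100 (complete control), made versus controls after 13–15 d greenhouse. Paddy plants treated at 2-leaf stage; postemergence plants at 1- to 4-leaf stage, 2–18 cm tall.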

wild oat = test: Test B postemergence herbicide test; format: in vivo, Avena fatua
In short: as §4

rice = test: Test B flooded paddy test; format: in vivo, Oryza sativa; conditions: scale 0 to 100 (0 no effect, 100 complete control)
In short: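 Scale 0–100: zero equals no visible effect, 100 complete control, judged by eye relative to controls. Timing: 13 to 15 days in greenhouse post-treatment. Growth stage at spraying: two leaves (paddy) or one to four leaves, 2–18 cm (postemergence).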

[2] = system: small flower umbrella sedge; test: Test B flooded paddy test; format: in vivo, Cyperus difformis; conditions: scale 0 to 100 (0 no effect, 100 complete control)
In short: as §3

ducksalad = test: Test B flooded paddy test; format: in vivo, Heteranthera limosa; conditions: scale 0 to 100 (0 no effect, 100 complete control)
In short: as §3

barnyardgrass [3] = test: Test B flooded paddy test; format: in vivo, Echinochloa crus-galli; conditions: scale 0 to 100 (0 no effect, 100 complete control)
In short: as §3

[4] = Postemergence, 500 g ai/ha, scale 0 (no effect) to 100 (complete control)
[5] = postemergence, 125 g ai/ha, scale 0 to 100
[6] = 500 g ai/ha, scale 0 to 100, 0 no effect, 100 complete control, preemergence
[7] = 125 g ai/ha, 0 is no effect, 100 is complete control, preemergence
[8] = 125 g ai/ha, visual rating, scale 0 (no effect) to 100 (complete control), postemergence
[9] = Postemergence, 500 g ai/ha, visual rating after 13 to 15 days, scale 0 (no effect) to 100 (complete control)
[10] = Preemergence, 500 g ai/ha, scale 0 to 100
[11] = 1000 g ai/ha, visual rating, 13 to 15 days
[12] = Postemergence, 250 g ai/ha, scale 0 (no effect) to 100 (complete control)
[13] = postemergence, 62 g ai/ha, scale 0 to 100

Compound: C=CCN(CC=C)C(=O)c1cccc(NC(=O)c2nn(C(C)(C)C)nc2C)n1 [Compound 439]
- Barnyardgrass plant response rating (barnyardgrass [1]; Postemergence, 125 g ai/ha, scale 0 (no effect) to 100 (complete control)): 0
- Barnyardgrass plant response rating (barnyardgrass [1]; [4]): 0
- Surinam Grass plant response rating (Surinam grass; [4]): 0
- Surinam Grass plant response rating (Surinam grass; [5]): 0
- Cocklebur plant response rating (cocklebur; [4]): 0
- Cocklebur plant response rating (cocklebur; [5]): 0
- Corn plant response rating (corn; [4]): 0
- Corn plant response rating (corn; [5]): 0
- Crabgrass, Large plant response rating (large crabgrass; [4]): 0
- Crabgrass, Large plant response rating (large crabgrass; [5]): 0
- Foxtail, Giant plant response rating (giant foxtail; [4]): 0
- Foxtail, Giant plant response rating (giant foxtail; [5]): 0
- Lambsquarters plant response rating (lambsquarters; [4]): 0
- Lambsquarters plant response rating (lambsquarters; [5]): 0
- Morningglory plant response rating (morningglory; [4]): 30
- Morningglory plant response rating (morningglory; [5]): 0
- Pigweed plant response rating (pigweed; [4]): 10
- Pigweed plant response rating (pigweed; [5]): 0
- Velvetleaf plant response rating (velvetleaf; [4]): 0
- Velvetleaf plant response rating (velvetleaf; [5]): 0
- Blackgrass plant response rating (blackgrass; [4]): 10
- Blackgrass plant response rating (blackgrass; [5]): 0
- Wheat plant response rating (wheat; [6]): 0
- Wheat plant response rating (wheat; [4]): 10
- Wheat plant response rating (wheat; [5]): 0
- Oat, Wild plant response rating (wild oat; [4]): 10
- Oat, Wild plant response rating (wild oat; [5]): 0
- Rice plant response rating (rice; 125 g ai/ha): 0
- Sedge, Umbrella plant response rating ([2]; 125 g ai/ha): 0
- Ducksalad plant response rating (ducksalad; 125 g ai/ha): 0
- Barnyardgrass plant response rating (barnyardgrass [3]; 125 g ai/ha): 0

Compound: C=CCN(CC=C)C(=O)c1cccc(NC(=O)c2nn(C(C)C)nc2CC)c1 [Compound 390]
- Plant response rating (0 to 100 scale), Barnyardgrass (barnyardgrass [1]; [7]): 0
- Barnyardgrass plant response rating (barnyardgrass [1]; [8]): 0
- Barnyardgrass plant response rating (barnyardgrass [1]; [4]): 10
- Plant response rating (0 to 100 scale), Surinam Grass (Surinam grass; [7]): 0
- Surinam Grass plant response rating (Surinam grass; [8]): 0
- Surinam Grass plant response rating (Surinam grass; [4]): 10
- Plant response rating (0 to 100 scale), Cocklebur (cocklebur; [7]): 0
- Cocklebur plant response rating (cocklebur; [8]): 20
- Cocklebur plant response rating (cocklebur; [4]): 20
- Plant response rating (0 to 100 scale), Corn (corn; [7]): 0
- Corn plant response rating (corn; [8]): 0
- Corn plant response rating (corn; [4]): 20
- Plant response rating (0 to 100 scale), Crabgrass, Large (large crabgrass; [7]): 10
- Crabgrass, Large plant response rating (large crabgrass; [8]): 10
- Crabgrass, Large plant response rating (large crabgrass; [4]): 20
- Plant response rating (0 to 100 scale), Foxtail, Giant (giant foxtail; [7]): 0
- Foxtail, Giant plant response rating (giant foxtail; [8]): 10
- Foxtail, Giant plant response rating (giant foxtail; [4]): 30
- Plant response rating (0 to 100 scale), Lambsquarters (lambsquarters; [7]): 30
- Lambsquarters plant response rating (lambsquarters; [8]): 60
- Lambsquarters plant response rating (lambsquarters; [4]): 60
- Plant response rating (0 to 100 scale), Morningglory (morningglory; [7]): 0
- Morningglory plant response rating (morningglory; [8]): 0
- Morningglory plant response rating (morningglory; [4]): 40
- Plant response rating (0 to 100 scale), Pigweed (pigweed; [7]): 0
- Pigweed plant response rating (pigweed; [8]): 50
- Pigweed plant response rating (pigweed; [4]): 60
- Plant response rating (0 to 100 scale), Velvetleaf (velvetleaf; [7]): 0
- Velvetleaf plant response rating (velvetleaf; [8]): 0
- Velvetleaf plant response rating (velvetleaf; [4]): 20
- Blackgrass plant response rating (blackgrass; [8]): 0
- Blackgrass plant response rating (blackgrass; [4]): 10
- Wheat plant response rating (wheat; [8]): 0
- Wheat plant response rating (wheat; [6]): 10
- Wheat plant response rating (wheat; [4]): 0
- Oat, Wild plant response rating (wild oat; [8]): 0
- Oat, Wild plant response rating (wild oat; [4]): 10
- Rice plant response rating (rice; 1000 g ai/ha): 30
- Sedge, Umbrella plant response rating ([2]; 1000 g ai/ha): 60
- Ducksalad plant response rating (ducksalad; 1000 g ai/ha): 40
- Barnyardgrass plant response rating (barnyardgrass [3]; 1000 g ai/ha): 0

Compound: CCNC(=O)c1cccc(NC(=O)c2cc(C(C)(C)C)nn2CC(C)C)c1 [Compound 42]
- Plant response rating, Barnyardgrass (barnyardgrass [1]; [9]): 20
- Barnyardgrass plant response rating (barnyardgrass [1]; [10]): 30
- Plant response rating, Surinam Grass (Surinam grass; [9]): 20
- Surinam Grass plant response rating (Surinam grass; [10]): 20
- Plant response rating, Cocklebur (cocklebur; [9]): 20
- Cocklebur plant response rating (cocklebur; [10]): 0
- Plant response rating, Corn (corn; [9]): 20
- Corn plant response rating (corn; [10]): 0
- Plant response rating, Crabgrass, Large (large crabgrass; [9]): 70
- Crabgrass, Large plant response rating (large crabgrass; [10]): 70
- Plant response rating, Foxtail, Giant (giant foxtail; [9]): 10
- Foxtail, Giant plant response rating (giant foxtail; [10]): 10
- Plant response rating, Lambsquarters (lambsquarters; [9]): 70
- Lambsquarters plant response rating (lambsquarters; [10]): 80
- Plant response rating, Morningglory (morningglory; [9]): 50
- Morningglory plant response rating (morningglory; [10]): 10
- Plant response rating, Pigweed (pigweed; [9]): 70
- Pigweed plant response rating (pigweed; [10]): 40
- Plant response rating, Velvetleaf (velvetleaf; [9]): 60
- Velvetleaf plant response rating (velvetleaf; [10]): 10
- Plant response rating, Blackgrass (blackgrass; [9]): 10
- Plant response rating, Wheat (wheat; [9]): 20
- Plant response rating, Oat, Wild (wild oat; [9]): 20
- Rice plant response rating (rice; [11]): 0
- Sedge, Umbrella plant response rating [2, 11]: 50
- Ducksalad plant response rating (ducksalad; [11]): 50
- Barnyardgrass plant response rating (barnyardgrass [3]; [11]): 0

Compound: CCOC(=O)c1ccc(F)c(NC(=O)c2cc(CC(C)C)nn2CC)c1 [Compound 72]
- Barnyardgrass plant response rating (barnyardgrass [1]; [12]): 0
- Barnyardgrass plant response rating (barnyardgrass [1]; [13]): 0
- Surinam Grass plant response rating (Surinam grass; [12]): 0
- Surinam Grass plant response rating (Surinam grass; [13]): 0
- Cocklebur plant response rating (cocklebur; [12]): 0
- Cocklebur plant response rating (cocklebur; [13]): 0
- Corn plant response rating (corn; [12]): 0
- Corn plant response rating (corn; [13]): 0
- Crabgrass, Large plant response rating (large crabgrass; [12]): 0
- Crabgrass, Large plant response rating (large crabgrass; [13]): 0
- Foxtail, Giant plant response rating (giant foxtail; [12]): 0
- Foxtail, Giant plant response rating (giant foxtail; [13]): 0
- Lambsquarters plant response rating (lambsquarters; [12]): 10
- Lambsquarters plant response rating (lambsquarters; [13]): 0
- Morningglory plant response rating (morningglory; [12]): 0
- Morningglory plant response rating (morningglory; [13]): 0
- Pigweed plant response rating (pigweed; [12]): 0
- Pigweed plant response rating (pigweed; [13]): 0
- Velvetleaf plant response rating (velvetleaf; [12]): 0
- Velvetleaf plant response rating (velvetleaf; [13]): 0
- Blackgrass plant response rating (blackgrass; [12]): 50
- Blackgrass plant response rating (blackgrass; [13]): 40
- Wheat plant response rating (wheat; 250 g ai/ha, scale 0 to 100, 0 no effect, 100 complete control, preemergence): 0
- Wheat plant response rating (wheat; [12]): 10
- Wheat plant response rating (wheat; [13]): 10
- Oat, Wild plant response rating (wild oat; [12]): 30
- Oat, Wild plant response rating (wild oat; [13]): 20
- Rice plant response rating (rice; [11]): 0
- Sedge, Umbrella plant response rating [2, 11]: 0
- Ducksalad plant response rating (ducksalad; [11]): 0
- Barnyardgrass plant response rating (barnyardgrass [3]; [11]): 0
